# Earlier results as cited in EP3958980B1, “TARGETED NOVEL TRIAZOLOTHIADIAZINE DERIVATIVES FOR THE TREATMENT OF LUNG CANCER” (Anadolu Universitesi, priority 2020, dated 2021).
# Columns and labels:
# [1] = test system: kidney fibroblast (BHK-21) and lung carcinoma (H-157) cell lines; details: highest cytotoxic activity; cell line not stated; cited from earlier work
# [2] = test system: kidney cancer (OU-31) cell line; parameters: concentration or dose not given beside the values; details: cited from earlier work
# [3] = test system: leukemia (MOLT-4) cell line; details: cited from earlier work
# [4] = test system: kidney fibroblast (BHK-21) cells; details: cited from earlier work
# [5] = test system: lung cancer (H157) cells; details: cited from earlier work
# [6] = test system: 60 cell lines formed of leukemia, NSCLC, melanoma, prostate, ovarian and breast cancers; details: against all cancer cells; cited from earlier work
structure (smiles),measurement,setting,value
"O=c1oc2ccccc2cc1-c1nnc2n1N=C(c1ccc(-c3ccccc3)cc1)CS2 [3-(6-(Biphenyl-4-yl)-7H-[1,2,4]triazolo[3,4-b][1,3,4]-thiadiazine-3-yl)-2H-chromene-2-one]",IC50,[1],1.01 ± 0.12 µM
"O=C(CSc1nnc2n1N=C(c1ccc(Cl)cc1)CS2)c1ccc(F)cc1 [2-((6-(4-Chlorophenyl)-7H-[1,2,4]triazolo[3,4-b][1,3,4]thiadiazine-3-yl)thio-1-(4-fluorophenyl)ethanone]",growth,[2],48.14%
same,growth,[3],49.82%
CC[C@]1(O)C[C@H]2CN(CCc3c([nH]c4ccccc34)[C@@](C(=O)OC)(c3cc4c(cc3OC)N(C=O)[C@H]3[C@@](O)(C(=O)OC)[C@H](OC(C)=O)[C@]5(CC)C=CCN6CC[C@]43[C@@H]65)C2)C1 [vincristine],inhibition,[4],74.5%
same,IC50,[5],1.03 ± 0.04 µM
"Fc1cc(-c2nnc3n2N=C(c2ccc(Cl)cc2)CS3)c(Cl)cc1Cl [3-(2,4-Dichloro-5-fluorophenyl)-6-(4-chlorophenyl)-1,2,4-triazolo[3,4-b]-1,3,4-thiadiazine]",GI50,[6],1.06 to 25.4 µM
